Among the test systems are HOP-92; LOX IMVI; HCT-116; RXF 393; MDA-MB-231; SR; NCI-H226; M14; DU-145; UO-31; MCF7; SK-OV-3; SN12C; EKVX; KM-20L2; IGROV-1; XF498; HL-60; CAKI-1; UACC-62.
Holding throughout (assay): inhibition of tumour cell growth, NCI panel, 48 h

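Compound exposure: 48 hours, 5 concentrations, 96-well plates. Abbreviation: GI50, concentration required for 50% inhibition of growth.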 Active and inactive are the calls of the source. No stated cut-off is given here; in the data, active = GI50 up to about 1.1 µM and inactive = higher.

Take `CCOC(=O)C1(C(=O)OCC)CSC1`: the GI50 with HOP-92, with LOX IMVI, in the assay with HCT-116, in the assay on RXF 393, in the assay with MDA-MB-231 and with SR was > 100 µM (inactive) in each case. Besides, the GI50 in the assay on NCI-H226, with M14, in the assay with DU-145, with UO-31, in the assay on MCF7 and in the assay on SK-OV-3 was > 100 µM (inactive) throughout. For the same molecule, in the assay with SN12C, the GI50 was > 100 µM (inactive).

Regarding `CNC(=O)SCC(NC(=O)CCC(N)C(=O)O)C(=O)NCC(=O)O` (stereo not drawn), the GI50 is > 68.4 µM (inactive) with HOP-92; 75 µM (inactive) in the assay on EKVX; 67.9 µM (inactive) in the assay on LOX IMVI; > 84.7 µM (inactive) in the assay on HCT-116; > 100 µM (inactive) with KM-20L2; > 100 µM (inactive) in the assay on IGROV-1. Also, the GI50 was > 100 µM (inactive) with RXF 393; > 100 µM (inactive) with XF498; > 100 µM (inactive) in the assay with NCI-H226; > 31.6 µM (inactive) with HL-60; > 100 µM (inactive) in the assay with CAKI-1; > 100 µM (inactive) in the assay with UO-31. For the same molecule, the GI50 is > 100 µM (inactive) in the assay with MCF7, > 100 µM (inactive) in the assay with SK-OV-3, 98.9 µM (inactive) in the assay on UACC-62 and > 89.7 µM (inactive) with SN12C.

`O=C1c2ccccc2C(=O)N1CC(CN1C(=O)c2ccccc2C1=O)(C(=O)OCc1ccccc1)C(=O)OCc1ccccc1`: the GI50 in the assay on HOP-92 is > 100 µM (inactive); with HCT-116 it was > 100 µM (inactive); in the assay with IGROV-1, > 100 µM (inactive); in the assay on RXF 393, 14.4 µM (inactive); in the assay with MDA-MB-231, > 100 µM (inactive); in the assay with SR it was > 100 µM (inactive). In addition, the GI50 with NCI-H226, in the assay with HL-60, in the assay with CAKI-1, in the assay on M14, with DU-145 and with UO-31 was > 100 µM (inactive) in each case. The GI50 in the assay with SK-OV-3, in the assay on UACC-62 and in the assay with SN12C was > 100 µM (inactive) each time.

In the case of `FC(F)(F)C1=NC(=NNc2nnc(-c3ccccc3)c(-c3ccccc3)n2)N=C(C(F)(F)F)C1`, the GI50 was 15.8 µM (inactive) in the assay on HOP-92; 10.2 µM (inactive) in the assay with EKVX; 12.7 µM (inactive) in the assay on LOX IMVI; 11.6 µM (inactive) in the assay on HCT-116; 16.8 µM (inactive) in the assay with KM-20L2; 21.5 µM (inactive) in the assay on IGROV-1. Further, the GI50 in the assay with RXF 393 was 7.57 µM (inactive); in the assay with XF498, 20 µM (inactive); in the assay on NCI-H226 it was 29.4 µM (inactive); with HL-60, 5.22 µM (inactive); with CAKI-1, 27.2 µM (inactive); in the assay on UO-31 it was 4.11 µM (inactive). In addition, the GI50 with MCF7 was 13.5 µM (inactive); with SK-OV-3, 60.4 µM (inactive); in the assay with UACC-62, 3.54 µM (inactive); in the assay with SN12C, > 72.9 µM (inactive).

Consider `NC(=O)Nc1ccc(C(=O)NCCCNC(=O)c2ccc(NC(N)=O)cc2)cc1`, for which the GI50 with HOP-92, in the assay with EKVX, in the assay with LOX IMVI, in the assay on HCT-116, in the assay on IGROV-1 and in the assay on RXF 393 was > 100 µM (inactive) throughout. In addition, the GI50 with SR, in the assay with NCI-H226, in the assay with HL-60, in the assay on CAKI-1, in the assay on M14 and with DU-145 was > 100 µM (inactive) in each case. Further, the GI50 in the assay on UO-31, with MCF7 and in the assay on UACC-62 was > 100 µM (inactive) throughout.

As for `ICC1CCCO1` (stereo not drawn), the GI50 with HOP-92, with EKVX, in the assay with LOX IMVI, with HCT-116, in the assay on KM-20L2 and in the assay on IGROV-1 was > 100 µM (inactive) each time. For the same molecule, the GI50 in the assay on RXF 393, in the assay on SR, in the assay with XF498, in the assay on NCI-H226, in the assay with HL-60 and in the assay with CAKI-1 was > 100 µM (inactive) in each case. Moreover, the GI50 in the assay with M14 and in the assay with SN12C was > 100 µM (inactive) in each case.

In the case of `CC(C)=CCc1c(C)cc2cc3c(c(O)c2c1O)C(=O)C=C(O)C3(CC=C(C)C)C/C=C(\C)CO` (stereo not drawn), the GI50 is 33.2 µM (inactive) in the assay with HOP-92; 35.7 µM (inactive) in the assay on EKVX; 38.5 µM (inactive) in the assay on LOX IMVI; 37 µM (inactive) in the assay on HCT-116; 39.9 µM (inactive) in the assay with KM-20L2; 38.1 µM (inactive) with IGROV-1. In addition, the GI50 in the assay on RXF 393 is 29 µM (inactive); in the assay on XF498, 16.4 µM (inactive); in the assay with NCI-H226 it was 34.2 µM (inactive); in the assay with HL-60, 19.4 µM (inactive); in the assay on CAKI-1, 46.3 µM (inactive); in the assay on UO-31, 29 µM (inactive). In addition, the GI50 was 42.7 µM (inactive) in the assay with MCF7, 36.7 µM (inactive) in the assay with SK-OV-3, 32.3 µM (inactive) with UACC-62 and 31.1 µM (inactive) with SN12C.

`CC(C)C1OC(=O)/C=C/C=C/C=C/C=C/C=C/CC(O)C(C)C(O)CC(O)CC(O)CC(O)CC(O)CC(O)CC(O)/C=C/C1C` (stereo not drawn): the GI50 in the assay on HOP-92, with EKVX, with IGROV-1, with SR, in the assay on HL-60 and in the assay on M14 was > 100 µM (inactive) in each case. Moreover, the GI50 in the assay with UO-31, in the assay on MCF7, with SK-OV-3 and in the assay on UACC-62 was > 100 µM (inactive) throughout.

As to `OCC(CO)CC1COc2ccccc2O1` (stereo not drawn), the GI50 in the assay with EKVX, in the assay on LOX IMVI, in the assay with HCT-116, with IGROV-1, in the assay on RXF 393 and in the assay with MDA-MB-231 was > 10 µM (inactive) each time. Further, the GI50 in the assay on SR, in the assay with NCI-H226, in the assay with HL-60, in the assay with CAKI-1, in the assay on M14 and in the assay with DU-145 was > 10 µM (inactive) throughout. In addition, the GI50 with UO-31, with MCF7, in the assay on SK-OV-3, in the assay with UACC-62 and in the assay on SN12C was > 10 µM (inactive) each time.

On to `O=C1C=C(N2CC2)C(=O)C=C1N1CC1`, for which the GI50 is 0.44 µM (active) in the assay with HOP-92; 0.0849 µM (active) with LOX IMVI; 0.354 µM (active) in the assay on KM-20L2; 0.753 µM (active) in the assay on IGROV-1; 0.0634 µM (active) in the assay on RXF 393; 2.3 µM (inactive) with MDA-MB-231. Further, the GI50 in the assay on SR is 0.0258 µM (active); with XF498, 0.105 µM (active); in the assay with NCI-H226, 0.418 µM (active); in the assay on HL-60, 0.0265 µM (active); with CAKI-1, < 0.0148 µM (active); with M14 it was 0.091 µM (active). Moreover, the GI50 is 0.339 µM (active) in the assay with DU-145; 0.104 µM (active) in the assay with UO-31; 0.522 µM (active) in the assay on SK-OV-3; 0.178 µM (active) in the assay with UACC-62; 0.122 µM (active) with SN12C.

As to `CCNC(=O)N(CC)CN(CC)C(=O)NCC`, the GI50 in the assay on EKVX, in the assay on LOX IMVI, with HCT-116, in the assay with KM-20L2, in the assay on XF498 and with NCI-H226 was > 100 µM (inactive) in each case. Also, the GI50 in the assay on HL-60, in the assay on CAKI-1, in the assay with M14, with UO-31, in the assay on SK-OV-3 and in the assay on UACC-62 was > 100 µM (inactive) in each case. Further, the GI50 in the assay on SN12C was > 100 µM (inactive).

As for `CCCNC1=NC(C)=CSC(Nc2ccccc2)=C1C#N`, the GI50 with HCT-116, with RXF 393, in the assay on MDA-MB-231, with SR, in the assay on CAKI-1 and in the assay with M14 was > 100 µM (inactive) throughout. Besides, the GI50 in the assay with DU-145, in the assay with UO-31, in the assay on MCF7, in the assay on SK-OV-3, with UACC-62 and with SN12C was > 100 µM (inactive) each time.

On to `C=CCN1C(=O)/C(=C/c2cccs2)N=C1SC1OC(COC(=O)c2ccccc2)C(OC(=O)c2ccccc2)C1OC(=O)c1ccccc1` (stereo not drawn), for which the GI50 with HOP-92, with EKVX, in the assay on LOX IMVI, with IGROV-1, in the assay with RXF 393 and in the assay on MDA-MB-231 was > 100 µM (inactive) in each case. The GI50 in the assay on SR was > 100 µM (inactive); with NCI-H226, > 100 µM (inactive); with HL-60, > 100 µM (inactive); in the assay on CAKI-1 it was > 100 µM (inactive); in the assay on DU-145, > 100 µM (inactive); in the assay with MCF7, 36.6 µM (inactive). Further, the GI50 in the assay on SK-OV-3 and in the assay on UACC-62 was > 100 µM (inactive) in each case.
